The target of one experiment is GSK-3β (Homo sapiens, UniProt P49841). Briefly: GSK-3β enzyme activity assay. Type of experiment: biochemical. Particulars: for GSK-3β inhibition, result in words: titration from 20 μM.
In a further experiment the test system is HIV, WT. Particulars: read-out: HIV, WT EC50, cited from earlier work.
The target of experiment [1] is T1, HIV reverse transcriptase (RT) (Human immunodeficiency virus type 1 group M subtype B, UniProt P03366). Particulars: read-out: HIV RT IC50; marked *, previously reported data ref 19; cited from earlier work.
In experiment [2] the target is T1, HIV reverse transcriptase (RT). Briefly: NNRTI assay. Type of experiment: biochemical.

The source of these data is publication PMC12107553 (ACS chemical neuroscience, 2024).

SMILES strings stand for the structures. Like-named read-outs stand apart in the source and are kept apart here. Where only a bound is given, the exact number is not on record here.

GSK-3β, sequence (P49841 whole entry): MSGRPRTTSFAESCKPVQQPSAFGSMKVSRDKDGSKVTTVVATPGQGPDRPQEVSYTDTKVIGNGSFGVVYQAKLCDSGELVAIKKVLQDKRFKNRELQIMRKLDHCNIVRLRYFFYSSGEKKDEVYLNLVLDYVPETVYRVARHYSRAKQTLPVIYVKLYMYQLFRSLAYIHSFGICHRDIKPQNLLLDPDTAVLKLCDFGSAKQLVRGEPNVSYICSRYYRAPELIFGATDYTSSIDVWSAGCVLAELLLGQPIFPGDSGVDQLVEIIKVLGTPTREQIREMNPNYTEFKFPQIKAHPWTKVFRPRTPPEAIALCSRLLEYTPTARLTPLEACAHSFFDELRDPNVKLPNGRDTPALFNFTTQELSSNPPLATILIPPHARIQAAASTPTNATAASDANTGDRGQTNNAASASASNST

Consider `Cc1ccnc2c1NC(=O)c1cccnc1N2C1CC1` [Nevirapine], for which the IC50 (commonly the concentration that inhibits the measured activity by half) at GSK-3β worked out at 1670 nM. In the experiment on HIV, WT (whole cell activity ref 21), the EC50 (usually the concentration giving half of the maximal effect) is 110 nM.

`Cc1cc(C#N)cc(C)c1Oc1nc(Nc2ccc(C#N)cc2)nc(N)c1Br` [Etravirine]: on GSK-3β, the 50% inhibitory concentration (IC50) came to 619 nM. Besides, the EC50 in the experiment with HIV, WT (whole cell activity ref 21) is 1 nM.

On to `O=C1Nc2ccc(Cl)cc2[C@@](C#CC2CC2)(C(F)(F)F)O1` [Efavirenz], for which, at GSK-3β, the IC50 was above 20000 nM and the “GSK-3β inhibition, result in words” value is “not inhibitors”. Besides, in the experiment on HIV, WT (whole cell activity ref 21), the EC50 was 2 nM.

`Cn1c(Cn2ccc(C(F)(F)F)c(Oc3cc(Cl)cc(C#N)c3)c2=O)n[nH]c1=O` [Doravirine]: the half-inhibitory concentration (IC50) in experiment [1] was 20.7 nM. At GSK-3β, the half-inhibitory concentration (IC50) was above 20000 nM and the “GSK-3β inhibition, result in words” value was “not inhibitors”. Further, the EC50 in the experiment on HIV, WT (whole cell activity ref 22) was 13 nM.

Take `Cc1cc(/C=C/C#N)cc(C)c1Nc1ccnc(Nc2ccc(C#N)cc2)n1` [Rilpivirine]: the 50% inhibitory concentration (IC50) in experiment [2] came to 160 nM; on GSK-3β, 502 nM. In addition, the EC50 with HIV, WT (whole cell activity ref 21) is 0.67 nM.
